# Measurements taken from PMC11816990, “New Terpenoids and Lignans from Phyllanthus acidus Fruits with Antioxidant Activity” (Foods, 2025).
# Tests used:
# [1] = ABTS+ radical scavenging test; type: biochemical; conditions: for Inhibition Rate (%): ABTS^+ inhibition, Concentration 250 μM
# Procedure: The ABTS^+ radical scavenging test was conducted as reported previously, and was slightly modified. Specifically, the solvent was replaced with DMSO due to the high volatility of 80% methanol. Trolox was used as positive control. The scavenging activities of phenolic compounds 3, 4, and 10–17 were calculated based on the percentage of ABTS^+ radical scavenged using the equation:Inhibition rate (%) = (A blank − A sample)/A blank
# IC50 values were calculated according to the Reed and Muench method.
# five tumor cell lines = system: five tumor cell lines; set-up: method as in PMID 17315965; conditions: 40 μM; compound from Aspidopterys obcordate; cited from earlier work
# ECA109 = system: ECA109; set-up: method as in doi:10.1016/j.tetlet.2013.06.082; conditions: compound isolated from Phyllanthus flexuosus; cited from earlier work
# A549 = system: A549; set-up: method as in doi:10.1016/j.tet.2021.132224; conditions: compounds derived from Phyllanthus acidus; cited from earlier work
# HONE = system: HONE; set-up: method as in doi:10.1016/j.tet.2021.132224; conditions: compounds derived from Phyllanthus acidus; cited from earlier work
# Hela cells = system: Hela cells; set-up: method as in doi:10.1016/j.tet.2021.132224; conditions: compounds derived from Phyllanthus acidus; cited from earlier work
# [2] = compound from Liriope muscari and Senecio scandens, versus Vitamin C; cited from earlier work
# [3] = set-up: method as in PMID 22158590; conditions: compound from Cordia sinensis, versus BHA; cited from earlier work
IC50 ([1]; ABTS^+ radical scavenging),"IC50 ([1]; Table S1, ABTS+ inhibition)",Structure (SMILES),Inhibition Rate (%) [1],also measured
348 ± 12.2 µM,348 ± 12.2 µM,"COc1cc([C@H]2Oc3c(OC)cc(CCCOC(C)=O)cc3[C@@H]2CO)ccc1O [Compound 10, 3-[(2S,3R)-2-(4-hydroxy-3-methoxyphenyl)-3-(hydroxymethyl)-7-methoxy-2,3-dihydro-1-benzofuran-5-yl]propyl acetate]",46.46 ± 0.83%,
204 ± 4.7 µM,204 ± 4.66 µM,"COc1cc([C@@H]2OC[C@H]3[C@@H]2CO[C@H]3c2ccc(O)c(OC)c2)ccc1O [Compound 13, (-)-pinoresinol]",60.12 ± 0.19%,antioxidant activities [2]: comparable to that of Vitamin C
176 ± 2.1 µM,176 ± 2.07 µM,"Cc1c(C)c2c(c(C)c1O)CCC(C)(C(=O)O)O2 (stereo not drawn) [Trolox, reference compound]",57.26 ± 1.38%,

# Continued, compound first:
Structure (SMILES),IC50 ([1]; ABTS^+ radical scavenging),"IC50 ([1]; Table S1, ABTS+ inhibition)",Inhibition Rate (%) [1],also measured
"COc1cc(CCCOC(C)=O)cc2c1O[C@@H](c1ccc(O)cc1)[C@@H]2CO [Compound 3, 3-[(2R,3S)-2-(4-hydroxyphenyl)-3-(hydroxymethyl)-7-methoxy-2,3-dihydro-1-benzofuran-5-yl]propyl acetate]",,,31.16 ± 0.38%,
"CC(=O)OCCCc1ccc2c(c1)[C@H](CO)[C@@H](c1ccc(O)cc1)O2 [Compound 4, 3-[(2S,3R)-2-(4-hydroxyphenyl)-3-(hydroxymethyl)-2,3-dihydro-1-benzofuran-5-yl] propyl acetate]",,,23.71 ± 0.37%,
"C=Cc1c(C)c(O)cc2c1CC[C@@H]1C(C)(C)[C@H](O)C(=O)C[C@@]21C [Compound 5, aspidoptoid D]",,,,cytotoxic activity against five tumor cell lines (five tumor cell lines): no significant cytotoxic activity
"C=Cc1c(C)c(O)cc2c1CC[C@@H]1C(C)(C)[C@H](O)[C@H](O)C[C@@]21C [Compound 6, cleistanthol]",,,,cytotoxic activity against ECA109 (ECA109): weak cytotoxic activity; cytotoxic activity against A549 (A549): weaker cytotoxic activity; cytotoxic activity against HONE (HONE): weaker cytotoxic activity; cytotoxic activity against Hela cells (Hela cells): weaker cytotoxic activity
"C=Cc1c(C)c(O)cc2c1CC[C@@H]1C(C)(C)[C@H](O)CC[C@@]21C [Compound 7, spruceanol]",,,,cytotoxic activity against A549 (A549): weaker cytotoxic activity; cytotoxic activity against HONE (HONE): weaker cytotoxic activity; cytotoxic activity against Hela cells (Hela cells): weaker cytotoxic activity
"COc1cc([C@H]2OC[C@@H]3[C@H]2CO[C@H]3c2ccc(O)c(OC)c2)ccc1O [Compound 12, (+) epipinoresinol]",387 ± 8 µM,387 ± 8.03 µM,49.51 ± 1.60%,
"COc1cc(C(O)C(CO)Oc2ccc(CCCOC3OC(CO)C(O)C(O)C3O)cc2OC)ccc1O [Compound 14, 4,7,9-trihydroxy-3,3′-dimethoxy-8-O-4′-neolignan-9′-O-β-D-glucopyranoside]",362 ± 8.4 µM,362 ± 8.39 µM,39.02 ± 1.35%,
"O=C(O)/C=C/c1ccc(O)c(O)c1 [Compound 15, trans-caffeic acid]",232.9 ± 1.9 µM,233 ± 1.92 µM,49.40 ± 0.72%,DPPH radical scavenging activity [3]: better DPPH radical scavenging activity than BHA
